Reference: paper PMC6915999, “Simultaneous hydrolysis with lipase and fermentation of rapeseed cake for iturin A production by Bacillus amyloliquefaciens CX-20” (BMC Biotechnology, 2019)

System: lipase
Assay: Stability of iturin A to lipase in fermentation broth
Format: in vitro ADME
Settings: RSM (76.52 g/L) fermentation broth after 72 h fermentation; 5 U/mL lipase added vs no lipase; continued at 28 °C, 220 rpm; iturin A concentration at 0, 24, 48 and 72 h by HPLC (210 nm); triplicate; Fig. 5
Protocol: Iturin A was extracted according to a reported method. Briefly, 0.3 mL of the mixed fermentation broth was added into a 2 mL glass tube containing 1.2 mL of methanol, shaken well and incubated for 60 min. The mixture was centrifuged at 12,000 rpm for 20 min, and the supernatant was filtered through a 0.22 μm pore-size hydrophobic polytetrafluoroethylene (PTFE) type disposable syringe. The iturin A concentration was quantified using a Waters 2695 HPLC system equipped with an ACQUITY UPLC BEA C18 column (1.7 μm 2.1 × 100 mm, Waters, USA). A mixture of acetonitrile and 10 mM ammonium acetate (35:65, v/v) was used as the mobile phase at a flow rate of 0.3 mL/min, and the elution was monitored at 210 nm. The concentration of iturin A was analyzed and quantified using an authentic reference standard (Sigma Chemicals, St. Louis, MO, USA). The content of iturin A was measured using triplicate samples.
First, submerged fermentation were performed in 250 mL flasks with 20 mL medium, containing (per liter): 60 g glucose, 1 g K2HPO4·3H2O, 0.5 g MgSO4·7H2O, 0.005 g MnSO4·H2O, and 76.52 g RSM. After 72 h of fermentation, the fermentation broth was divided into two groups. Therein, one group supplemented with 5 U/mL lipase while the other without lipase addition. […] And the concentrations of iturin A at different time (0, 24, 48 and 72 h) were measured.

In the case of iturin A, the “stability of iturin A to excess lipase” value was “almost no effect on the stability of iturin A”.
